Values quoted from earlier work as cited in patent US7928052B2, “Enzyme stabilization” (Dow Global Technologies LLC, priority 2004, dated 2011).

CC(O)C(=O)O (centres unmarked) [lactic acid]
K1, complexation constant B(OH)3+H2L⇄[1:1]−+H3O+ (H2L is fully protonated lactic acid): 1.8×10^−3
K1′, complexation constant B(OH)3+HL−⇄[1:1]−+H2O (pH 4 to about pH 10, lactic acid having lost a proton): 9.0 M⁻¹
